Experimental data as given in article PMC12098659 (Scientific Reports, 2025).

The molecules below were run on α-amylase (assay: not given). Settings: 100 µM.

`C[C@H]1O[C@H](O[C@H]2[C@H](O)[C@@H](O)[C@@H](O[C@H]3[C@H](O)[C@@H](O)C(O)O[C@@H]3CO)O[C@@H]2CO)[C@H](O)[C@@H](O)[C@@H]1N[C@H]1C=C(CO)[C@@H](O)[C@H](O)[C@H]1O` (some centres unmarked) [Acarbose] showed an inhibition of 50.1 ± 0.5%.

These molecules were tested against T1, α-glucosidase (Saccharomyces cerevisiae, UniProt P53341) (assay: Enzyme kinetic study). Settings: not given.
T1 sequence (P53341 whole entry): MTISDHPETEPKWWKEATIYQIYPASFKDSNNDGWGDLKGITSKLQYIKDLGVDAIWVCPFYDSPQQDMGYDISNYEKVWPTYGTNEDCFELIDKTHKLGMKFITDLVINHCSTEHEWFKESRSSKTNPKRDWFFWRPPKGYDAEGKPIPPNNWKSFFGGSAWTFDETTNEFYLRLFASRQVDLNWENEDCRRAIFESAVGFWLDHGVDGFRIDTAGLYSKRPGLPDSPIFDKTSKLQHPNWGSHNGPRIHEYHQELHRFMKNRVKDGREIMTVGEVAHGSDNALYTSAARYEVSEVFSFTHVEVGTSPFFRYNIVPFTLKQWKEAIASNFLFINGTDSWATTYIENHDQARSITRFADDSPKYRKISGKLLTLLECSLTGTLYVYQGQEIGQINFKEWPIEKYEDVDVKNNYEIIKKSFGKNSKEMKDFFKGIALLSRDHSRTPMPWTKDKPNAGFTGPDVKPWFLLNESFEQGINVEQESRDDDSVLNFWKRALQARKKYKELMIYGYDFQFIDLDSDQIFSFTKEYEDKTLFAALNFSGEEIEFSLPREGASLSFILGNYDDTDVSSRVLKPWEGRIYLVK
Type: biochemical

In the case of `Cc1ccc(-c2c(N)c(-c3ccc(Cl)cc3)n3nc(-c4ccccc4)nc3c2C#N)cc1` [Compound 15j, 6-Amino-5-(4-chlorophenyl)-2-phenyl-7-(p-tolyl)-^1,2,4triazolo[1,5-a]pyridine-8-carbonitrile], the Ki is reported as 6.6 µM.

Same assay, conditions: Lineweaver-Burk plot: Km increases, Vmax unchanged

For `Cc1ccc(-c2c(N)c(-c3ccc(Cl)cc3)n3nc(-c4ccccc4)nc3c2C#N)cc1` [Compound 15j, 6-Amino-5-(4-chlorophenyl)-2-phenyl-7-(p-tolyl)-^1,2,4triazolo[1,5-a]pyridine-8-carbonitrile], the α-glucosidase inhibition mode was “competitive”.

Same assay, conditions: enzyme treated with 6.6 µM compound 15j; untreated 62.5

With `Cc1ccc(-c2c(N)c(-c3ccc(Cl)cc3)n3nc(-c4ccccc4)nc3c2C#N)cc1` [Compound 15j, 6-Amino-5-(4-chlorophenyl)-2-phenyl-7-(p-tolyl)-^1,2,4triazolo[1,5-a]pyridine-8-carbonitrile] the “Maximum velocity (Vm) of the treated enzyme” value was 62.5 (nmol min^− 1).

What follows are molecules tested against T1, α-glucosidase (assay: α-Glucosidase inhibition assay). Settings: not given.
Type: biochemical

In order of falling IC50:
1. N#Cc1c(-c2ccc(Cl)cc2)c(N)c(-c2cccs2)n2nc(-c3ccccc3)nc12 [Compound 15t, 6-Amino-7-(4-chlorophenyl)-2-phenyl-5-(thiophen-2-yl)-^1,2,4triazolo[1,5-a]pyridine-8-carbonitrile]  75.63 ± 0.44 µM
2. N#Cc1c(-c2ccccc2)c(N)c(-c2ccccc2Cl)n2nc(-c3ccccc3)nc12 [Compound 15e, 6-Amino-5-(2-chlorophenyl)-2,7-diphenyl-^1,2,4triazolo[1,5-a]pyridine-8-carbonitrile]  60.64 ± 0.18 µM
3. COc1ccc(-c2c(N)c(-c3ccc(Cl)cc3)c(C#N)c3nc(-c4ccccc4)nn23)cc1 [Compound 15r, 6-Amino-7-(4-chlorophenyl)-5-(4-methoxyphenyl)-2-phenyl-^1,2,4triazolo[1,5-a]pyridine-8-carbonitrile]  49.96 ± 0.11 µM
4. N#Cc1c(-c2ccccc2)c(N)c(-c2cccs2)n2nc(-c3ccccc3)nc12 [Compound 15g, 6-Amino-2,7-diphenyl-5-(thiophen-2-yl)-^1,2,4triazolo[1,5-a]pyridine-8-carbonitrile]  45.73 ± 0.29 µM
5. N#Cc1c(-c2ccccc2)c(N)c(-c2cccc(Cl)c2)n2nc(-c3ccccc3)nc12 [Compound 15d, 6-Amino-5-(3-chlorophenyl)-2,7-diphenyl-^1,2,4triazolo[1,5-a]pyridine-8-carbonitrile]  45.54 ± 0.25 µM
6. N#Cc1c(-c2ccc(Cl)cc2)c(N)c(-c2ccccc2)n2nc(-c3ccccc3)nc12 [Compound 15q, 6-Amino-7-(4-chlorophenyl)-2,5-diphenyl-^1,2,4triazolo[1,5-a]pyridine-8-carbonitrile]  38.18 ± 0.14 µM
7. COc1ccc(-c2c(N)c(-c3cccs3)n3nc(-c4ccccc4)nc3c2C#N)cc1 [Compound 15p, 6-Amino-7-(4-methoxyphenyl)-2-phenyl-5-(thiophen-2-yl)-^1,2,4triazolo[1,5-a]pyridine-8-carbonitrile]  36.33 ± 0.09 µM
8. N#Cc1c(-c2ccccc2)c(N)c(-c2ccc(Br)cc2)n2nc(-c3ccccc3)nc12 [Compound 15f, 6-Amino-5-(4-bromophenyl)-2,7-diphenyl-^1,2,4triazolo[1,5-a]pyridine-8-carbonitrile]  32 ± 0.32 µM
9. N#Cc1c(-c2ccc(Cl)cc2)c(N)c(-c2ccc(Cl)cc2)n2nc(-c3ccccc3)nc12 [Compound 15s, 6-Amino-5,7-bis(4-chlorophenyl)-2-phenyl-^1,2,4triazolo[1,5-a]pyridine-8-carbonitrile]  31.49 ± 0.08 µM
10. Cc1ccc(-c2c(N)c(-c3ccc(Br)cc3)n3nc(-c4ccccc4)nc3c2C#N)cc1 [Compound 15k, 6-Amino-5-(4-bromophenyl)-2-phenyl-7-(p-tolyl)-^1,2,4triazolo[1,5-a]pyridine-8-carbonitrile]  29.89 ± 0.17 µM
11. COc1ccc(-c2c(N)c(-c3ccccc3)c(C#N)c3nc(-c4ccccc4)nn23)cc1 [Compound 15b, 6-Amino-5-(4-methoxyphenyl)-2,7-diphenyl-^1,2,4triazolo[1,5-a]pyridine-8-carbonitrile]  25.5 ± 0.23 µM
12. N#Cc1c(-c2ccccc2)c(N)c(-c2ccccc2)n2nc(-c3ccc(Cl)cc3)nc12 [Compound 15v, 6-Amino-2-(4-chlorophenyl)-5,7-diphenyl-^1,2,4triazolo[1,5-a]pyridine-8-carbonitrile]  25.13 ± 0.24 µM
13. COc1ccc(-c2c(N)c(-c3ccc(OC)cc3)n3nc(-c4ccccc4)nc3c2C#N)cc1 [Compound 15n, 6-Amino-5,7-bis(4-methoxyphenyl)-2-phenyl-^1,2,4triazolo[1,5-a]pyridine-8-carbonitrile]  22.31 ± 0.08 µM
14. Cc1ccc(-c2c(N)c(-c3cccs3)n3nc(-c4ccccc4)nc3c2C#N)cc1 [Compound 15l, 6-Amino-2-phenyl-5-(thiophen-2-yl)-7-(p-tolyl)-^1,2,4triazolo[1,5-a]pyridine-8-carbonitrile]  21.49 ± 0.09 µM
15. N#Cc1c(-c2ccccc2)c(N)c(-c2ccccc2)n2nc(-c3ccccc3)nc12 [Compound 15a, 6-Amino-2,5,7-triphenyl-^1,2,4triazolo[1,5-a]pyridine-8-carbonitrile]  20.32 ± 0.11 µM
16. COc1ccc(-c2nc3c(C#N)c(-c4ccccc4)c(N)c(-c4ccccc4)n3n2)cc1 [Compound 15u, 6-Amino-2-(4-methoxyphenyl)-5,7-diphenyl-^1,2,4triazolo[1,5-a]pyridine-8-carbonitrile]  14.8 ± 0.22 µM
17. Cc1ccc(-c2c(N)c(-c3ccccc3)n3nc(-c4ccccc4)nc3c2C#N)cc1 [Compound 15h, 6-Amino-2,5-diphenyl-7-(p-tolyl)-^1,2,4triazolo[1,5-a]pyridine-8-carbonitrile]  14.4 ± 0.43 µM
18. N#Cc1c(-c2ccccc2)c(N)c(-c2ccc(Cl)cc2)n2nc(-c3ccccc3)nc12 [Compound 15c, 6-Amino-5-(4-chlorophenyl)-2,7-diphenyl-^1,2,4triazolo[1,5-a]pyridine-8-carbonitrile]  9.69 ± 0.09 µM
19. COc1ccc(-c2c(N)c(-c3ccccc3)n3nc(-c4ccccc4)nc3c2C#N)cc1 [Compound 15m, 6-Amino-7-(4-methoxyphenyl)-2,5-diphenyl-^1,2,4triazolo[1,5-a]pyridine-8-carbonitrile]  9.18 ± 0.12 µM
20. COc1ccc(-c2c(N)c(-c3ccc(C)cc3)c(C#N)c3nc(-c4ccccc4)nn23)cc1 [Compound 15i, 6-Amino-5-(4-methoxyphenyl)-2-phenyl-7-(p-tolyl)-^1,2,4triazolo[1,5-a]pyridine-8-carbonitrile]  8.43 ± 0.25 µM
21. COc1ccc(-c2c(N)c(-c3ccc(Cl)cc3)n3nc(-c4ccccc4)nc3c2C#N)cc1 [Compound 15o, 6-Amino-5-(4-chlorophenyl)-7-(4-methoxyphenyl)-2-phenyl-^1,2,4triazolo[1,5-a]pyridine-8-carbonitrile]  7.64 ± 0.13 µM
22. Cc1ccc(-c2c(N)c(-c3ccc(Cl)cc3)n3nc(-c4ccccc4)nc3c2C#N)cc1 [Compound 15j, 6-Amino-5-(4-chlorophenyl)-2-phenyl-7-(p-tolyl)-^1,2,4triazolo[1,5-a]pyridine-8-carbonitrile]  6.6 ± 0.09 µM
